Consider eleven compounds from US20220369688A1, “ORAL COMPOSITIONS AND RELATED METHODS FOR REDUCING THROAT IRRITATION” (NICOVENTURES TRADING LIMITED, priority 2021, published 2022).

Like-named read-outs stand apart in the source and are kept apart here.

For data set [1] the following is noted: organic acid, octanol/water; cited from earlier work.
For data set [2] the following is noted: cited from earlier work.
For data set [3] the following is noted: 1,000 ppm nicotine, 2 equivalents of octanoic acid (sodium octanoate), pH 6.5.
Description: A pH probe was submerged in the resulting liquid and HCl (0.05 M) was added under stirring to bring the solution to pH 6.5. The flask weight was then brought up to 100 grams with RO water. […] Partitioning was performed by removing aliquots (10 mL) of each solution and placing into separate 20 ml scintillation vials. Octanol (10 ml) was added to each vial. The vials were then placed on a wrist action shaker for 20 minutes. Following agitation, the vials were allowed to separate for 30 min. and an aliquot (100 μl) of each octanol layer was removed and diluted with 900 μl octanol in 2 mL GC/MS vials.
The conditions of data set [4]: 1,000 ppm nicotine, pH 6.5.
Another data set has as its system human buccal tissue. The note with it: nicotine solution at pH=6 relative to pH 8.1; cited from earlier work.
For data set [5] the following is noted: cited from earlier work. The source holds these as a separate data set.

Usually logP stands for a log measure of how a compound divides between an organic and an aqueous phase. Take `CCCCCCCC(=O)O` [octanoic acid]: the logP in data set [1] is 3.05.
For the compound `CC(=O)CCC(=O)O` [levulinic acid], the logP in data set [1] is −0.49.
Consider `CC(/C=C/C=C(C)/C=C/C(=O)O)=C\C=C\C=C(C)\C=C\C=C(C)\C=C\C(=O)O` (stereo in doubt) [norbixin, (2E,4E,6E,8E,10E,12E,14E,16E,18E)-4,8,13,17-tetramethylicosa-2,4,6,8,10,12,14,16,18-nonaenedioic acid], for which the solubility in water result in data set [2] is “water soluble”.
For the compound `O=C(O)C(O)C(O)C(=O)O` (centres unmarked) [tartaric acid], the logP in data set [1] is −1.9.
As for `O=C(O)c1ccccc1` [benzoic acid], for the setting “1000 ppm nicotine in unbuffered water with 1 molar equivalent of sodium benzoate, 100 μl octanol aliquot diluted in 900 μl”, the concentration in octanol amounted to 19.2 ppm. For the same compound, the “benzoic acid molarity in octanol in terms of nicotine mass” value (1000 ppm nicotine, 1 molar equivalent sodium benzoate) amounted to 25.5 ppm nicotine.
For `CN1CCCC1c1cccnc1` (centres unmarked) [nicotine], the “nicotine partitioned into octanol” value in data set [3] is listed as approximately 67%. Moreover, the results for the “% nicotine in octanol” value in data set [4] (10 eq. benzoic acid (sodium benzoate)) and in data set [4] (10 eq. octanoic acid (sodium octanoate)) were approximately 52% and approximately 75%, respectively. Also, in the data set with human buccal tissue, the “factor by which diffusion rate is reduced” value is approximately 7. The “log Ka1” value in data set [5] (pyridine ring nitrogen) is recorded as 3.41. Moreover, the “log Ka2” value in data set [5] (pyrrolidine ring nitrogen) was 8.02.
For the compound `CC(C)[C@@H]1CC[C@@H](C)C[C@H]1OC(=O)CCC(=O)O` [monomenthyl succinate], in data set [1], the logP is 3.
With ethyl benzoic acid, the logP in data set [1] is recorded as 2.9.
Turning to `CCCCCCCS(=O)(=O)O` [1-heptanesulfonic acid], in data set [1], the logP was 0.88.
`COC(=O)/C=C/C(C)=C\C=C\C(C)=C\C=C\C=C(C)\C=C\C=C(C)\C=C\C(=O)O` [bixin, (2E,4E,6E,8E,10E,12E,14E,16Z,18E)-20-methoxy-4,8,13,17-tetramethyl-20-oxoicosa-2,4,6,8,10,12,14,16,18-nonaenoic acid]: in data set [2], the solubility in water entry is “insoluble in water”.
As for isopropyl benzoic acid, in data set [1], the logP was 3.5.
